Source: PubChem BioAssay (NCI)
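GI50 = concentration required for 50% inhibition of growth. TGI marks complete inhibition of growth.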

Key:
Assay in all cases: DTP human tumour cell line panel, 384-well format
786-0 renal = system: 786-0 renal
A498 renal = system: A498 renal
A549 NSCLC = system: A549 NSCLC
ACHN renal = system: ACHN renal
BT-549 breast = system: BT-549 breast
CAKI-1 renal = system: CAKI-1 renal
CCRF-CEM leukemia = system: CCRF-CEM leukemia
COLO 205 colon = system: COLO 205 colon
DU-145 prostate = system: DU-145 prostate
EKVX NSCLC = system: EKVX NSCLC
HCC-2998 colon = system: HCC-2998 colon
HCT-15 colon = system: HCT-15 colon
HL-60(TB) leukemia = system: HL-60(TB) leukemia
HOP-62 NSCLC = system: HOP-62 NSCLC
HOP-92 NSCLC = system: HOP-92 NSCLC
HS 578T breast = system: HS 578T breast
HT29 colon = system: HT29 colon
IGROV1 ovarian = system: IGROV1 ovarian
KM12 colon = system: KM12 colon
M14 melanoma = system: M14 melanoma
MALME-3M melanoma = system: MALME-3M melanoma
MCF7 breast = system: MCF7 breast
MDA-MB-231 breast = system: MDA-MB-231 breast
MDA-MB-435 melanoma = system: MDA-MB-435 melanoma
MDA-MB-468 breast = system: MDA-MB-468 breast
MOLT-4 leukemia = system: MOLT-4 leukemia
NCI-H226 lung = system: NCI-H226 lung
NCI-H23 lung = system: NCI-H23 lung
NCI-H322M lung = system: NCI-H322M lung
NCI-H460 NSCLC = system: NCI-H460 NSCLC
NCI-H522 lung = system: NCI-H522 lung
NCI/ADR-RES ovarian = system: NCI/ADR-RES ovarian
OVCAR-3 ovarian = system: OVCAR-3 ovarian
OVCAR-4 ovarian = system: OVCAR-4 ovarian
OVCAR-5 ovarian = system: OVCAR-5 ovarian
OVCAR-8 ovarian = system: OVCAR-8 ovarian
PC-3 prostate = system: PC-3 prostate
RPMI-8226 leukemia = system: RPMI-8226 leukemia
RXF 393 renal = system: RXF 393 renal
SF-268 CNS = system: SF-268 CNS
SF-295 CNS = system: SF-295 CNS
SF-539 CNS = system: SF-539 CNS
SK-MEL-2 melanoma = system: SK-MEL-2 melanoma
SK-MEL-28 melanoma = system: SK-MEL-28 melanoma
SK-MEL-5 melanoma = system: SK-MEL-5 melanoma
SK-OV-3 ovarian = system: SK-OV-3 ovarian
SN12C renal = system: SN12C renal
SNB-19 CNS = system: SNB-19 CNS
SNB-75 CNS = system: SNB-75 CNS
SR leukemia = system: SR leukemia
SW-620 colon = system: SW-620 colon
T-47D breast = system: T-47D breast
TK-10 renal = system: TK-10 renal
U251 glioblastoma = system: U251 glioblastoma
UACC-257 melanoma = system: UACC-257 melanoma
UACC-62 melanoma = system: UACC-62 melanoma

## COc1c2occc2cc2ccc(=O)oc12
786-0 renal
  GI50: > 100 µM
  TGI: > 100 µM
A498 renal
  GI50: > 100 µM
  TGI: > 100 µM
A549 NSCLC
  GI50: > 100 µM
  TGI: > 100 µM
ACHN renal
  GI50: > 100 µM
  TGI: > 100 µM
BT-549 breast
  GI50: > 100 µM
  TGI: > 100 µM
CAKI-1 renal
  GI50: > 100 µM
  TGI: > 100 µM
CCRF-CEM leukemia
  GI50: > 100 µM
  TGI: > 100 µM
COLO 205 colon
  GI50: > 100 µM
  TGI: > 100 µM
DU-145 prostate
  GI50: > 100 µM
  TGI: > 100 µM
EKVX NSCLC
  GI50: 93.1 µM
  TGI: > 100 µM
HCC-2998 colon
  GI50: > 100 µM
  TGI: > 100 µM
HCT-15 colon
  GI50: > 100 µM
  TGI: > 100 µM
HL-60(TB) leukemia
  GI50: > 100 µM
  TGI: > 100 µM
HOP-62 NSCLC
  GI50: > 100 µM
  TGI: > 100 µM
HOP-92 NSCLC
  GI50: > 100 µM
  TGI: > 100 µM
HS 578T breast
  GI50: > 100 µM
  TGI: > 100 µM
HT29 colon
  GI50: > 100 µM
  TGI: > 100 µM
IGROV1 ovarian
  GI50: > 100 µM
  TGI: > 100 µM
KM12 colon
  GI50: > 100 µM
  TGI: > 100 µM
M14 melanoma
  GI50: > 100 µM
  TGI: > 100 µM
MALME-3M melanoma
  GI50: > 100 µM
  TGI: > 100 µM
MCF7 breast
  GI50: > 100 µM
  TGI: > 100 µM
MDA-MB-231 breast
  GI50: > 100 µM
  TGI: > 100 µM
MDA-MB-435 melanoma
  GI50: > 100 µM
  TGI: > 100 µM
MDA-MB-468 breast
  GI50: 39.8 µM
  TGI: > 100 µM
MOLT-4 leukemia
  GI50: > 100 µM
  TGI: > 100 µM
NCI-H226 lung
  GI50: 55.4 µM
  TGI: > 100 µM
NCI-H23 lung
  GI50: > 100 µM
  TGI: > 100 µM
NCI-H322M lung
  GI50: > 100 µM
  TGI: > 100 µM
NCI-H460 NSCLC
  GI50: > 100 µM
  TGI: > 100 µM
NCI-H522 lung
  GI50: 60.9 µM
  TGI: > 100 µM
NCI/ADR-RES ovarian
  GI50: > 100 µM
  TGI: > 100 µM
OVCAR-3 ovarian
  GI50: > 100 µM
  TGI: > 100 µM
OVCAR-4 ovarian
  GI50: > 100 µM
  TGI: > 100 µM
OVCAR-5 ovarian
  GI50: > 100 µM
  TGI: > 100 µM
OVCAR-8 ovarian
  GI50: > 100 µM
  TGI: > 100 µM
PC-3 prostate
  GI50: > 100 µM
  TGI: > 100 µM
RPMI-8226 leukemia
  GI50: > 100 µM
  TGI: > 100 µM
RXF 393 renal
  GI50: > 100 µM
  TGI: > 100 µM
SF-268 CNS
  GI50: > 100 µM
  TGI: > 100 µM
SF-295 CNS
  GI50: > 100 µM
  TGI: > 100 µM
SF-539 CNS
  GI50: > 100 µM
  TGI: > 100 µM
SK-MEL-2 melanoma
  GI50: > 100 µM
  TGI: > 100 µM
SK-MEL-28 melanoma
  GI50: > 100 µM
  TGI: > 100 µM
SK-MEL-5 melanoma
  GI50: > 100 µM
  TGI: > 100 µM
SK-OV-3 ovarian
  GI50: > 100 µM
  TGI: > 100 µM
SN12C renal
  GI50: > 100 µM
  TGI: > 100 µM
SNB-19 CNS
  GI50: > 100 µM
  TGI: > 100 µM
SNB-75 CNS
  GI50: 73.3 µM
  TGI: > 100 µM
SR leukemia
  GI50: > 100 µM
  TGI: > 100 µM
SW-620 colon
  GI50: > 100 µM
  TGI: > 100 µM
T-47D breast
  GI50: > 100 µM
  TGI: > 100 µM
TK-10 renal
  GI50: 81.6 µM
  TGI: > 100 µM
U251 glioblastoma
  GI50: > 100 µM
  TGI: > 100 µM
UACC-257 melanoma
  GI50: > 100 µM
  TGI: > 100 µM
UACC-62 melanoma
  GI50: > 100 µM
  TGI: > 100 µM
